Results reported in publication PMC9603010 (ACS Bio & Med Chem Au, 2022).

Key:
[1] = biological target: 3CL^pro M165A (Severe acute respiratory syndrome coronavirus 2, UniProt P0DTD1, M3428A); assay type: cell-based, SARS-CoV-2
[2] = biological target: 3CL^pro Q299A (Severe acute respiratory syndrome coronavirus 2, UniProt P0DTD1, Q3562A); assay type: cell-based, SARS-CoV-2

C=C1C(=O)O[C@H]2[C@H]1CC/C(C)=C/CC[C@@]1(C)O[C@@H]21 [parthenolide]
inhibition in M165A compared to WT [1]: reduced
inhibition in Q299A compared to WT [2]: reduced
